{"source": "paper PMC4472559", "about": "(Journal of the American Chemical Society, 2015)", "biological_target": "transthyretin (TTR^WT) (Homo sapiens, UniProt P02766)", "assay": "isothermal titration calorimetry", "assay_type": "binding"}
{"molecule": "O=S(=O)(F)Oc1ccc(-c2nnc(-c3cc(Cl)c(O)c(Cl)c3)o2)cc1", "note": "[compound 4, probe 4]", "values": [{"measurement": "Kd", "value": 2, "unit": "nM"}]}
